From patent US11124507B2, “1H-pyrrolopyridine compound, N-oxide thereof or salt thereof, agricultural and horticultural insecticide comprising the compound, and method for using the insecticide” (Nihon Nohyaku Co., Ltd., priority 2016, dated 2021)
Where a name gives a salt, the structure may show the parent alone. Read-outs that look alike come from different tables or passages of the source.

What was measured:
Type in all cases: in vivo
Laodelphax striatellus = test: Insecticidal test on Laodelphax striatellus (rice seedling dip); settings: 192 h, read-out: insecticidal efficacy (corrected mortality rate), activity level
Excerpt: Insecticidal Test on Laodelphax striatellus
The condensed heterocyclic compounds represented by the general formula (1) of the present invention or salts thereof were separately dispersed in water and diluted to 500 ppm. Rice plant seedlings (variety: Nihonbare) were dipped in the agrochemical dispersions for 30 seconds. After air-dried, each seedling was put into a separate glass test tube and inoculated with ten 3rd-instar larvae of Laodelphax striatellus, and then the glass test tubes were capped with cotton plugs. At 8 days after the inoculation, the numbers of surviving larvae and dead larvae were counted, the corrected mortality rate was calculated according to the formula shown below, and the insecticidal efficacy was evaluated according to the criteria shown below. Corrected mortality rate (%)=100×(Survival rate in a non-treatment plot−Survival rate in a treatment plot)/Survival rate in a non-treatment plot [Math. 2] Corrected Mortality Rate A: the corrected mortality rate is 100%.

Plutella xylostella = test: Insecticidal test on Plutella xylostella (dip of Chinese cabbage seedlings with laid eggs); settings: 144 h
Experimental: Insecticidal Test on Plutella xylostella
Adults of Plutella xylostella were released onto Chinese cabbage seedlings and allowed to lay eggs thereon. […] After air-dried, the seedlings were kept in a thermostatic chamber at 25° C. […] This test was conducted in triplicate using 10 adults of Plutella xylostella per plot. Corrected mortality rate (%)=100×(Number of hatched larvae in a non-treatment plot−Number of hatched larvae in a treatment plot)/Number of hatched larvae in a non-treatment plot [Math. 3]

Myzus persicae = test: Test for control efficacy on Myzus persicae (foliar application, Chinese cabbage); settings: 144 h, foliar application to potted Chinese cabbage plants, 6 days after application, read-out: control efficacy (control rate), activity level
Excerpt: Test for control efficacy on Myzus persicae Chinese cabbage plants were planted in plastic pots (diameter: 8 cm, height: 8 cm), Green peach aphids (Myzus persicae) were propagated on the plants, and the number of surviving Green peach aphids in each pot was counted. The condensed heterocyclic compounds represented by the general formula (1) of the present invention or salts thereof were separately dispersed in water and diluted to 500 ppm. The agrochemical dispersions were applied to the foliage of the potted Chinese cabbage plants. After the plants were air-dried, the pots were kept in a greenhouse. At 6 days after the foliar application, the number of surviving Green peach aphids on the Chinese cabbage plant in each pot was counted, the control rate was calculated according to the formula shown below, and the control efficacy was evaluated according to the criteria shown below. Control rate=100−{(T×Ca)/(Ta×C)}×100 [Math. 1] Ta: the number of survivors before the foliar application in a treatment plot T: the number of survivors after the foliar application in a treatment plot Ca: the number of survivors before the foliar application in a non-treatment plot C: the number of survivors after the foliar application in a non-treatment plot Criteria A: the control rate is 100%. B: the control rate is 90 to 99%. C: the control rate is 80 to 89%. D: the control rate is 50 to 79%.

[1] = 500 ppm, rice seedlings dipped 30 seconds, ten 3rd-instar larvae, 8 days after inoculation
[2] = 500 ppm, seedlings with laid eggs dipped about 30 seconds, 25° C., 6 days after dip treatment, criteria of Test Example 2, read-out: insecticidal efficacy (corrected mortality rate), activity level
[3] = read-out: insecticidal efficacy (corrected mortality rate), activity level

CCS(=O)(=O)c1cc2cc(Cl)ccc2nc1-c1[nH]c2cc(C(F)(F)F)cnc2c1F [Compound 1-3, 2-(6-chloro-3-ethylsulfonyl-quinolin-2-yl)-3-fluoro-6-trifluoromethyl-1H-pyrrolo[3,2-b]pyridine]
100%: mortality at 500 ppm (Laodelphax striatellus; [1]) | mortality at 500 ppm (Plutella xylostella; [2]) | pest or weed control at 500 ppm (Myzus persicae)

CCOC(=O)Nc1ccc2cc(S(=O)(=O)CC)c(-c3[nH]c4cc(C(F)(F)F)cnc4c3F)nc2c1 [Compound 1-13, 2-(7-ethoxycarbonylamino-3-ethylsulfonyl-quinolin-2-yl)-3-fluoro-6-trifluoromethyl-1H-pyrrolo[3,2-b]pyridine]
100%: mortality at 500 ppm (Laodelphax striatellus) | mortality at 500 ppm (Plutella xylostella; [3]) | pest or weed control at 500 ppm (Myzus persicae)

CCS(=O)(=O)c1cc2cc(Cl)ccc2nc1-c1[nH]c2cc(C(F)(F)F)cnc2c1Cl [Compound 1-44, 3-chloro-2-(6-chloro-3-ethylsulfonyl-quinolin-2-yl)-6-trifluoromethyl-1H-pyrrolo[3,2-b]pyridine]
100%: mortality at 500 ppm (Laodelphax striatellus; [1]) | mortality at 500 ppm (Plutella xylostella; [2]) | pest or weed control at 500 ppm (Myzus persicae)

CCS(=O)(=O)c1cc2cc(Cl)ccc2nc1-c1c(F)c2ncc(C(F)(F)F)cc2n1C(C)=O [Compound 2-1, 1-acetyl-2-(6-chloro-3-ethylsulfonyl-quinolin-2-yl)-3-fluoro-6-trifluoromethyl-1H-pyrrolo[3,2-b]pyridine]
100%: mortality at 500 ppm (Laodelphax striatellus; [1]) | mortality at 500 ppm (Plutella xylostella; [2]) | pest or weed control at 500 ppm (Myzus persicae)

CCSc1cc2cc(Cl)ccc2nc1-c1cc2ncc(C(F)(F)F)cc2n1C(=O)OC(C)(C)C [Compound 2-41, 1-(tert-butoxycarbonyl)-2-(6-chloro-3-ethylthio-quinolin-2-yl)-6-trifluoromethyl-1H-pyrrolo[3,2-b]pyridine]
100%: mortality at 500 ppm (Laodelphax striatellus; [1]) | mortality at 500 ppm (Plutella xylostella; [2]) | pest or weed control at 500 ppm (Myzus persicae)

CCS(=O)(=O)c1cc2cc(Cl)ccc2nc1-c1cc2ncc(C(F)(F)F)cc2n1C(=O)OC(C)(C)C [Compound 2-42, 1-(tert-butoxycarbonyl)-2-(6-chloro-3-ethylsulfonyl-quinolin-2-yl)-6-trifluoromethyl-1H-pyrrolo[3,2-b]pyridine]
100%: mortality at 500 ppm (Laodelphax striatellus; [1]) | mortality at 500 ppm (Plutella xylostella; [2]) | pest or weed control at 500 ppm (Myzus persicae)

CCOC(=O)Nc1ccc2cc(S(=O)(=O)CC)c(-c3c(F)c4ncc(C(F)(F)F)cc4n3C(=O)OC(C)(C)C)nc2c1 [Compound 2-49, 1-(tert-butoxycarbonyl)-2-(7-ethoxycarbonylamino-3-ethylsulfonyl-quinolin-2-yl)-3-fluoro-6-trifluoromethyl-1H-pyrrolo[3,2-b]pyridine]
100%: mortality at 500 ppm (Laodelphax striatellus) | mortality at 500 ppm (Plutella xylostella; [3]) | pest or weed control at 500 ppm (Myzus persicae)

CCS(=O)(=O)c1cc2ccc(Br)cc2nc1-c1c(Cl)c2ncc(C(F)(F)F)cc2n1C(=O)OC(C)(C)C [Compound 2-61, 1-(tert-butoxycarbonyl)-2-(7-bromo-3-ethylsulfonyl-quinolin-2-yl)-3-chloro-6-trifluoromethyl-1H-pyrrolo[3,2-b]pyridine]
100%: mortality at 500 ppm (Laodelphax striatellus; [1]) | mortality at 500 ppm (Plutella xylostella; [2]) | pest or weed control at 500 ppm (Myzus persicae)

CCS(=O)(=O)c1cc2ccc(Br)cc2nc1-c1c(Cl)c2ncc(C(F)(F)F)cc2n1COC [Compound 2-65, 1-methoxymethyl-2-(7-bromo-3-ethylsulfonyl-quinolin-2-yl)-3-chloro-6-trifluoromethyl-1H-pyrrolo[3,2-b]pyridine]
100%: mortality at 500 ppm (Laodelphax striatellus; [1]) | mortality at 500 ppm (Plutella xylostella; [2]) | pest or weed control at 500 ppm (Myzus persicae)

CCS(=O)(=O)c1cc2ccc(C=O)cc2nc1-c1c(Cl)c2ncc(C(F)(F)F)cc2n1C(=O)OC(C)(C)C [Compound 2-97, 1-(tert-butoxycarbonyl)-2-(7-formyl-3-ethylsulfonyl-quinolin-2-yl)-3-chloro-6-trifluoromethyl-1H-pyrrolo[3,2-b]pyridine]
100%: mortality at 500 ppm (Laodelphax striatellus; [1]) | mortality at 500 ppm (Plutella xylostella; [2]) | pest or weed control at 500 ppm (Myzus persicae)

C=Cc1ccc2cc(S(=O)(=O)CC)c(-c3c(Cl)c4ncc(C(F)(F)F)cc4n3C(=O)OC(C)(C)C)nc2c1 [Compound 2-98, 1-(tert-butoxycarbonyl)-2-(7-vinyl-3-ethylsulfonyl-quinolin-2-yl)-3-chloro-6-trifluoromethyl-1H-pyrrolo[3,2-b]pyridine]
100%: mortality at 500 ppm (Laodelphax striatellus; [1]) | mortality at 500 ppm (Plutella xylostella; [2]) | pest or weed control at 500 ppm (Myzus persicae)

CCS(=O)(=O)c1cc2cc(Cl)ccc2nc1-c1cc2ncc(C(F)(F)F)cc2[nH]1 [Compound 4-3, 2-(6-chloro-3-ethylsulfonyl-quinolin-2-yl)-6-trifluoromethyl-1H-pyrrolo[3,2-b]pyridine trifluoroacetate]
100%: mortality at 500 ppm (Laodelphax striatellus; [1]) | mortality at 500 ppm (Plutella xylostella; [2]) | pest or weed control at 500 ppm (Myzus persicae)
